Data reported in patent US8455009B2, “Amniotic membrane preparations and purified compositions and anti-inflammation methods” (TissueTech, Inc., priority 2005, dated 2013).

Key:
Raw264.7 cells = test: NO assay (nitrite, Griess reagent) in Raw264.7 macrophages; format: cell-based, mouse; settings: 500 μM inhibitor; cells cultured on AM
Method: Raw 264.7 cells, a mouse macrophage cell line, were obtained from the ATCC and cultured in phenol red-free Dulbecco's modified Eagle's medium (DMEM) supplemented with 10% fetal bovine serum, 50 μg/ml gentamicin, and 1.25 μg/ml fungizone in 100 mm culture dishes. When cells became 70%-80% confluent, the medium was removed and cells were treated with trypsin/EDTA for 10 min at 25° C. After digestion, cells were still firmly attached to the dish, so the trypsin/EDTA solution was removed. […] After centrifugation at 500×g for 5 min, the medium was removed, the cell pellet resuspended in the DMEM/ITS medium, cells counted, and cell density adjusted to 0.5×10^6/ml. […]
At the end of the cultivation, the cell culture medium in each well was harvested individually and centrifuged at 12,000×g for 10 min at 4° C. […] NO production was assessed by measuring the nitrite, its stable degradation product, using Griess reagent according to the manufacturer's protocol. Briefly, 50 μl of the cleared medium was mixed with 100 μl of the Griess reagents (ICN Biomedicals, Aurora, Ohio), after 15 min the absorbance was measured at 550 nm using Fusion™ universal microplate analyzer (Packard, Meriden, Conn.). The amount of nitrite was calculated from a standard curve of sodium nitrite (NaNO2; Sigma, St. Louis, Mo.).

Raw 264.7 cells = test: Hoechst-33342 nuclear staining of macrophages; format: cell-based, mouse; settings: 500 μM inhibitor; cells on AM with IFN γ
Source text: To determine if the aforementioned cell death was mediated by apoptosis, cells in parallel experiments were subjected to Hoechst-33342 staining. Fragmented nuclei with strong Hoechst staining were found more in AM/IFN γ as compared to AM without IFN γ and to their plastic controls. Percentages of Hoechst-33342-positive apoptotic nuclei were 12.4±2.7% (PL), 16.5±3.1% (PL/IFN γ), 14.7±1.1% (AM), and 63.8±7.9% (AM/IFN γ). There was no statistical difference between PL and PL/IFN γ and between PL and AM (all p>0.05), while there was a statistical difference between AM and AM/IFN γ and between PL/IFNγ and AM/IFNγ (all p<0.001). […] In contrast, there was no such giant cell in AM/IFNγ cultures.

TGF-β1 promoter = TGF-β1 promoter suppression (adenoviral promoter-luciferase) in human corneal fibroblasts; format: cell-based
Method: When human corneal fibroblasts cultured on 100 mm plastic dish in DMEM/10% FBS reached 80% confluency (˜1.0×10^6 cells), cells were washed twice with DMEM/10% FBS. Adenoviruses-TGF-β1 promoter-luciferase (MOI=37.5) and Adeno-CMV-beta-gal (MOI=30) were added to the culture plates with 10 ml of the fresh DMEM/10% FBS and cells were incubated at 37° C. for 4 hours, and trypsinized for 5 minutes using 4 ml prewarmed trypsin/EDTA. After trypsin/EDTA activity was neutralized with 8 ml of DMEM/10% FBS, cells were collected into a 15 ml tube and centrifuged at 1,500 rpm (˜600×g) for 5 min. After decanting the medium, cells were resuspended in 15 ml DMEM/10% FBS, and cell viability was measured by trypan blue stain. Viable 3×10^4 cells were seeded on a plastic 24 well or on the stromal surface of AM inserts. A total of 4 wells or inserts were prepared. Cells were then incubated at 37° C. in a CO2 incubator for 48 hours.
After carefully removing the growth medium from each well, cells were rinsed with 0.5 ml PBS at lease twice, taking care not to dislodge attached cells. After removing as much as PBS in the well, 100 μl 1× lysis buffer was added to cover the cells, and cells were mechanically scraped and transferred to a microcentrifuge tube placed on ice. Cell lysates were collected by vortexing for 10-15 sec and centrifuging at 12,000×g for 15 sec at room temperature. […]

[1] = test system: human corneal fibroblasts; test: Cell morphology and density of human corneal fibroblasts after treatment; format: cell-based; settings: HA alone; low concentrations of AME or jelly extracts
Source text: The above changes were even more dramatic in lyophilized AME or L/AME than their non-lyophilized counterparts in AME or Jelly extracts, respectively (FIG. 6).

suppressive activity on TGF-β1 promoter, HA alone (TGF-β1 promoter; 100 μg/ml)	suppression of TGF-β1 promoter activation (TGF-β1 promoter; compared to the PBS control, normalized with beta-galatosidase activity, FIG. 5)	Molecule	IFN γ induced nitrite level with NO synthase inhibitor (Raw264.7 cells) [µM]	extent of macrophage apoptosis with NO synthase inhibitor (Raw 264.7 cells)	change in cell morphology [1]
		CC(=O)O.CNC(=N)NCCC[C@H](N)C(=O)O [L-NMMA, NG-monomethyl-L-arginine acetate]	19.8 ± 4.9	not significantly attenuated	
mild suppressive activity	showed suppression	hyaluronic acid [HA]			no change in cell morphology
		CC(=N)NCCCC[C@H](N)C(=O)O.Cl [L-NIL, L-N-6-(1-iminoethyl) lysine hydrochloride]	14.0 ± 9.8	not significantly attenuated	
